Entries after “also recorded” stand apart in the source; their conditions may differ.
Tests used:
Type in all cases: biochemical
[1] = biological target: PKCη (Homo sapiens, UniProt P24723); test: HTRF KinEASE kinase assay, PKCη (kinase selectivity); settings: HTRF KinEASE kit, 3 duplicate wells; read-out: PKCη IC50
Protocol: (§1) Inhibitory activities against PIM-1, TRKA, TRKB, FLT3, PKCδ, PKCε, PKCη, PAK4, PLK1, ROCK2, and IKKβ kinases were all determined using an HTRF®KinEASE™ kinase assay kit based on a time-resolved fluorescence technology. 7-carbonylstaurosporine (7OSTA) and TP-3654 were used as positive controls, and 3 duplicate wells were set in parallel. […] A signal ratio was calculated as F2/F1×10000, and then an IC50 value was calculated using Graphpad Prism 8 software.

[2] = biological target: PLK1 (Homo sapiens, UniProt P53350); test: HTRF KinEASE kinase assay, PLK1 (kinase selectivity); settings: HTRF KinEASE kit, 3 duplicate wells; read-out: PLK1 IC50
Protocol: as §1

[3] = biological target: PKCδ (Homo sapiens, UniProt Q05655); test: HTRF KinEASE kinase assay, PKCδ (kinase selectivity); settings: HTRF KinEASE kit, 3 duplicate wells; read-out: PKCδ IC50
Protocol: as §1

[4] = biological target: PAK4 (Homo sapiens, UniProt O96013); test: HTRF KinEASE kinase assay, PAK4 (kinase selectivity); settings: HTRF KinEASE kit, 3 duplicate wells; read-out: PAK4 IC50
Protocol: as §1

[5] = biological target: TRKA (Homo sapiens, UniProt P04629); test: HTRF KinEASE kinase assay, TRKA (kinase selectivity); settings: HTRF KinEASE kit, 3 duplicate wells; read-out: TRKA IC50
Protocol: as §1

[6] = biological target: TRKB (Homo sapiens, UniProt Q16620); test: HTRF KinEASE kinase assay, TRKB (kinase selectivity); settings: HTRF KinEASE kit, 3 duplicate wells; read-out: TRKB IC50
Protocol: as §1

[7] = biological target: T1, IKKβ (Homo sapiens, UniProt O14920); test: HTRF KinEASE kinase assay, IKKβ (kinase selectivity); settings: HTRF KinEASE kit, 3 duplicate wells; read-out: IKKβ IC50
T1 sequence (O14920 1-756): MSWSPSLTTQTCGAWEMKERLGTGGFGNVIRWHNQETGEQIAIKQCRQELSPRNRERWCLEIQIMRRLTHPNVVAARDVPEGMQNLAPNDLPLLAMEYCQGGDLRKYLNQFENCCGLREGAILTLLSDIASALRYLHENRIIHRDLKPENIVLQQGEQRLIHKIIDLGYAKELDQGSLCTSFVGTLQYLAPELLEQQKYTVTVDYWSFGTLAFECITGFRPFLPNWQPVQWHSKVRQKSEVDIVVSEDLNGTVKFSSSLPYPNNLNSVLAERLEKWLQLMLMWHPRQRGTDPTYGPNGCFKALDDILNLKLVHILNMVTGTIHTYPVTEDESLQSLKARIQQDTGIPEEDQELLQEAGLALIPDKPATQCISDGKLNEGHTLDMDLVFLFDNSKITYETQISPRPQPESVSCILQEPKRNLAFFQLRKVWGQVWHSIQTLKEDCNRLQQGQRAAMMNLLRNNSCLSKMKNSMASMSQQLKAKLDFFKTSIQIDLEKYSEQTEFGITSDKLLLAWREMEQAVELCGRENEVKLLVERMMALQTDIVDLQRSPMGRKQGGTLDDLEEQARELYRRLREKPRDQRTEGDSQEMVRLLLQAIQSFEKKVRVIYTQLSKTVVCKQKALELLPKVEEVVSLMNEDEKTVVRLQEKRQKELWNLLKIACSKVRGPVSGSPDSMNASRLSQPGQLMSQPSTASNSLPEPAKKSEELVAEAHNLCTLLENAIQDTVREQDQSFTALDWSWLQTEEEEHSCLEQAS
Protocol: as §1

[8] = biological target: T2, PKCε (Homo sapiens, UniProt Q02156); test: HTRF KinEASE kinase assay, PKCε (kinase selectivity); settings: HTRF KinEASE kit, 3 duplicate wells; read-out: PKCε IC50
T2 sequence (Q02156 1-737): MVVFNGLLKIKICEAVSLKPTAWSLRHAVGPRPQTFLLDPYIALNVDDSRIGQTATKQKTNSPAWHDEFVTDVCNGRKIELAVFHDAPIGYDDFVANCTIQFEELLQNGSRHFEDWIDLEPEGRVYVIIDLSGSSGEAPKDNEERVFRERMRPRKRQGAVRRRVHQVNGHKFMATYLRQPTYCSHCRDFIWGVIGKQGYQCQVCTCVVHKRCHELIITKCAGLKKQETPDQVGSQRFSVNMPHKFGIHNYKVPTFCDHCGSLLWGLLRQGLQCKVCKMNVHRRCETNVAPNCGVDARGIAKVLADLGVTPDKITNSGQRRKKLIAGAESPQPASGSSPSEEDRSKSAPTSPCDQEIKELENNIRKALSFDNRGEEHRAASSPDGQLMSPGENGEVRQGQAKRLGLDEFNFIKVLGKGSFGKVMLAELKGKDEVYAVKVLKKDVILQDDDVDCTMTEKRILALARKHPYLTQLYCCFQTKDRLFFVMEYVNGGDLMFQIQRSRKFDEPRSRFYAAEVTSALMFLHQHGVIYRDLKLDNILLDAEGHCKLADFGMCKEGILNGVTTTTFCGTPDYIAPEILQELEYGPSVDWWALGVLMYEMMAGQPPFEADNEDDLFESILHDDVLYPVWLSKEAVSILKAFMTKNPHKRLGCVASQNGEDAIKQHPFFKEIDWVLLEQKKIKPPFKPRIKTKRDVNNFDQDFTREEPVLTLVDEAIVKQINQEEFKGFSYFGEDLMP
Protocol: as §1

[9] = biological target: PIM-1 kinase (Homo sapiens, UniProt P11309); test: HTRF KinEASE kinase assay, PIM-1 inhibitory activity
Text: Inhibitory activities against PIM-1, TRKA, TRKB, FLT3, PKCδ, PKCε, PKCη, PAK4, PLK1, ROCK2, and IKKβ kinases were all determined using an HTRF®KinEASE™ kinase assay kit based on a time-resolved fluorescence technology. 7-carbonylstaurosporine (7OSTA) and TP-3654 were used as positive controls, and 3 duplicate wells were set in parallel. Specific operation steps are as follows. • (1) A kinase buffer was formulated and then used to formulate compounds to be tested, a positive drug, a substrate, kinases, and adenosine triphosphate (ATP). • (2) 2 μL of the substrate, 2 μL of the kinases (the kinases were not added in a negative control group), 4 μL of the compounds to be tested or the positive drug (4 μL of a buffer was added in a positive control group, and 6 μL of a buffer was added in the negative control group), and 2 μL of the ATP were sequentially added into each well of a 384-well microplate, and the microplate was sealed with a membrane and then centrifuged for uniform mixing. • (3) According to different types of the kinases, incubation was performed in an incubator at 37° C. for a specific time. • (4) A detection solution was formulated using XL-665, an antibody, and a detection buffer, 10 µL of the detection solution was added into each well, the microplate was sealed with a membrane and then centrifuged for uniform mixing, and standing was performed at room temperature for 1 hour. • (5) Fluorescence value intensities F1 and F2 at wavelengths of 620 nm and 665 nm were measured using a multifunctional microplate tester, respectively. A signal ratio was calculated as F2/F1×10000, and then an IC50 value was calculated using Graphpad Prism 8 software.

Chain of PIM-1 kinase (P11309 whole entry): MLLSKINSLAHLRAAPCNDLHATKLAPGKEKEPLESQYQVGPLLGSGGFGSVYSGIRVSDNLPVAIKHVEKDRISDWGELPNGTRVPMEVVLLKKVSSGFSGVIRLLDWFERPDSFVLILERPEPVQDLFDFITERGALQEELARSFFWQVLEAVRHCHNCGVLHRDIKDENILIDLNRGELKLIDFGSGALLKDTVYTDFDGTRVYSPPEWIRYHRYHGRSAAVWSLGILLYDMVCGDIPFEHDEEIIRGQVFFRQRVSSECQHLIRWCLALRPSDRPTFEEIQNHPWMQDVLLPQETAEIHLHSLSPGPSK
Chain of PLK1 (P53350 whole entry, species assumed): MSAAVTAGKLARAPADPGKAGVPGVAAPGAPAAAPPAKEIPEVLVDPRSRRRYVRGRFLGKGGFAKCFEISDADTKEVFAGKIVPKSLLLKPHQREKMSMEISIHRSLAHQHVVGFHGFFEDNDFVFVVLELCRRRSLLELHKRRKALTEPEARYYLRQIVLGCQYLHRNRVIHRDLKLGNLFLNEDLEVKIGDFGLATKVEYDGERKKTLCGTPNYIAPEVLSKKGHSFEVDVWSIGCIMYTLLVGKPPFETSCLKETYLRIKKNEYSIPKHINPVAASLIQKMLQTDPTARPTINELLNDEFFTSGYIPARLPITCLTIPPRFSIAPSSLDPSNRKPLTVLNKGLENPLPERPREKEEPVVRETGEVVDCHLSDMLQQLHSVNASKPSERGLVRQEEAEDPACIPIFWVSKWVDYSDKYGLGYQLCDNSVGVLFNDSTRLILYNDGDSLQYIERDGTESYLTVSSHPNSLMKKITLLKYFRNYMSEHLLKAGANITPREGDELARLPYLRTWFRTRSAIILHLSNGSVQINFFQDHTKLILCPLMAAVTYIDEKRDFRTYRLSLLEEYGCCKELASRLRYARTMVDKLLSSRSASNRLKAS
Chain of PKCη (P24723 whole entry): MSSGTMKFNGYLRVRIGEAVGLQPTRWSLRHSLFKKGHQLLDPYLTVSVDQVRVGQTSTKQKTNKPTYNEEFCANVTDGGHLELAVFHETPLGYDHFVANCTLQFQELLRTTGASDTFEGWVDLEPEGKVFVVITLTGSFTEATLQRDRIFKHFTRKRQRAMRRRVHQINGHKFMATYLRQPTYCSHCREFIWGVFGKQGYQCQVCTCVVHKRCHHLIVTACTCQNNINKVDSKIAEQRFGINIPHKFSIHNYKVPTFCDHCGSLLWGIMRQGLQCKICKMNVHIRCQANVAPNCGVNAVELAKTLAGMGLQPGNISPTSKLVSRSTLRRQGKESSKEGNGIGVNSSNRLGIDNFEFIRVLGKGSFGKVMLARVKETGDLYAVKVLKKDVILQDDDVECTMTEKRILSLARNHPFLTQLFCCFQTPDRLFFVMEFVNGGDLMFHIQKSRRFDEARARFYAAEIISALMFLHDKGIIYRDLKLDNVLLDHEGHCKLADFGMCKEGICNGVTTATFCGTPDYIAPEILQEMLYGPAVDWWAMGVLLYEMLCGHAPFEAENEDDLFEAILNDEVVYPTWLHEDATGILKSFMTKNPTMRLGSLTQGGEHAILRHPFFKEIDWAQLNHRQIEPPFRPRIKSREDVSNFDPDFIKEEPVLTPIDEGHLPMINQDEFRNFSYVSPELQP
Chain of TRKA (P04629 33-796, species assumed): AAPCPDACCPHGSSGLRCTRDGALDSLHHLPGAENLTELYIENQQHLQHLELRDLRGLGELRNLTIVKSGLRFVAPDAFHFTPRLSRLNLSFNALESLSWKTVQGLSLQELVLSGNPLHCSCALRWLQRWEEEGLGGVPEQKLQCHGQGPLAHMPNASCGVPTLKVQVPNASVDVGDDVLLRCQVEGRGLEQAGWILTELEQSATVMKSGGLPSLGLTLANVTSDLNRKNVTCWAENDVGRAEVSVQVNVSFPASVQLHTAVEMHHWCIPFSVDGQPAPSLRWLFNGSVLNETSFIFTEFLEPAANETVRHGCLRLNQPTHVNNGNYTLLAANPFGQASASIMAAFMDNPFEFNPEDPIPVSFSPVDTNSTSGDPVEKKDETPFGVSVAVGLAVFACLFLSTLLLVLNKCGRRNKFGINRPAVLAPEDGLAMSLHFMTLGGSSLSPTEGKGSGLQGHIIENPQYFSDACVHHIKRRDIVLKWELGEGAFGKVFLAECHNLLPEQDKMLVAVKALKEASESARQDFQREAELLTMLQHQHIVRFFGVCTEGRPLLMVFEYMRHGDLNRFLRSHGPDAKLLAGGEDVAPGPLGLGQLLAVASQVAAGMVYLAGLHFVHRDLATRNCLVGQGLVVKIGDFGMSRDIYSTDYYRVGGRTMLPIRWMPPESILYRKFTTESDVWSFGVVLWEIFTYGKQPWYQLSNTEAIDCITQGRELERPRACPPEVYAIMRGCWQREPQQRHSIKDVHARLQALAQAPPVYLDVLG
Chain of PAK4 (O96013 whole entry, species assumed): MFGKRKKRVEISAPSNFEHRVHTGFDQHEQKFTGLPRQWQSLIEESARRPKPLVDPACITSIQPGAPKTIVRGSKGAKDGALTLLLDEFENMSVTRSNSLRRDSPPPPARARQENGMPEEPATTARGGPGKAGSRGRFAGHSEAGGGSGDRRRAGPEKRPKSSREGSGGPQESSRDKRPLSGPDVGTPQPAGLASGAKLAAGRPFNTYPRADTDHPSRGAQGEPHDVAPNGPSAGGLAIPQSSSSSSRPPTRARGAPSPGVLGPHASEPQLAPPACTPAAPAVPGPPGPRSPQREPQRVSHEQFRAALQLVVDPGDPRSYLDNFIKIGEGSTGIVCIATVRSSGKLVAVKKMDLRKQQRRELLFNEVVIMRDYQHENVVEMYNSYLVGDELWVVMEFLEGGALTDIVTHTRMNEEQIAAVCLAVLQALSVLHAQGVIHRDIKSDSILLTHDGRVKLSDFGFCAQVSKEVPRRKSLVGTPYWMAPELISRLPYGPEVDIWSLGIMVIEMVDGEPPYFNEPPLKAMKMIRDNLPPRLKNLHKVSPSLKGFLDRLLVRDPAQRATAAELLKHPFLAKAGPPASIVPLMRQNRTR
Chain of TRKB (Q16620 32-822, species assumed): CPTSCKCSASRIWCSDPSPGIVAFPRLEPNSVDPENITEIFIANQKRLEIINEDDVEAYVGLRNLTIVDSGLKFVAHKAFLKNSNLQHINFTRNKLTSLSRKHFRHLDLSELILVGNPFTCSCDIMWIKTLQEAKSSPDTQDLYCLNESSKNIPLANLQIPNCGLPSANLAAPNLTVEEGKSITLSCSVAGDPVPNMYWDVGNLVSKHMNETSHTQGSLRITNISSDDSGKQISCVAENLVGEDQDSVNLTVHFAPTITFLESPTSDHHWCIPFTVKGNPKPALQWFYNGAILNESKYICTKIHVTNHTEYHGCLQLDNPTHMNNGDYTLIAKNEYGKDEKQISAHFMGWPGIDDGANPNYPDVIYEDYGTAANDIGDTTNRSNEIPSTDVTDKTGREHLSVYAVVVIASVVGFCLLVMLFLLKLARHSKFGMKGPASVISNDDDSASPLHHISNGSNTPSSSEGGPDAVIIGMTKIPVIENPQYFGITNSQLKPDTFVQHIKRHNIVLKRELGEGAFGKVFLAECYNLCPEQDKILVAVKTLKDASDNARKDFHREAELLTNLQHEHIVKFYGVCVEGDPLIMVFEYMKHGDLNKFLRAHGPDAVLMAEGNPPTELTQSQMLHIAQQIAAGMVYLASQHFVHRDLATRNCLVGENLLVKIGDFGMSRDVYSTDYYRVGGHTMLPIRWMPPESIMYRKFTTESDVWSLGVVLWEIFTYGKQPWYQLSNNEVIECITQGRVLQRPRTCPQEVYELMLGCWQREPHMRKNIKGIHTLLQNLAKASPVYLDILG
Chain of PKCδ (Q05655 whole entry): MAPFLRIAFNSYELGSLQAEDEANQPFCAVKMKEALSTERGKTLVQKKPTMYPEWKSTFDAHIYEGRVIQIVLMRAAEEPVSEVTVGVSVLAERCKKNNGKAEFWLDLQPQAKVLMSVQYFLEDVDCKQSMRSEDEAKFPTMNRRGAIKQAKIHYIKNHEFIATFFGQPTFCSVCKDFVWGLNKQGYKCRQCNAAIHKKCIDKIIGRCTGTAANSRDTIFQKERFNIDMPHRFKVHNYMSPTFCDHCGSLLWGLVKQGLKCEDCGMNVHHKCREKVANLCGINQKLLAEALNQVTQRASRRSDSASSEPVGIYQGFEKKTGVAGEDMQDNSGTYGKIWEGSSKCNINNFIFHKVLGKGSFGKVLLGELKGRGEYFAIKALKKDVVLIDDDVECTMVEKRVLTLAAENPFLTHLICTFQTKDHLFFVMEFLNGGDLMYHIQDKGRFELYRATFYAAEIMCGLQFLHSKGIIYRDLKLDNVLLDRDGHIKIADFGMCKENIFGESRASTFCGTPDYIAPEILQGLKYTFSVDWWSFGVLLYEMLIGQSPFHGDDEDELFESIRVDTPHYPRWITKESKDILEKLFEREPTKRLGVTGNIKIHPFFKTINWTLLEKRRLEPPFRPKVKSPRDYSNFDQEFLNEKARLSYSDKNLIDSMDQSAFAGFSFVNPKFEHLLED

- IC50 [1]: 73.2 nM
- IC50 [2]: 421 nM
- IC50 [3]: 10.4 nM
- IC50 [4]: 240 nM
- IC50 [5]: 4 nM
- IC50 [6]: 13.6 nM
- IC50 [7]: > 1000 nM
- IC50 [8]: 69 nM
- IC50 ([9]; HTRF KinEASE kit, 3 duplicate wells, read-out: PIM-1 kinase inhibitory activity (IC50)): 5.9 nM
SMILES: CO[C@@H]1[C@H](N(C)C(=O)CCC(=O)NO)C[C@H]2O[C@]1(C)n1c3ccccc3c3c4c(c5c6ccccc6n2c5c31)C(=O)NC4=O [Compound 17]
- selectivity for the PIM-1 kinase (in words) ([9]; versus TRKA, TRKB, FLT3, PKCδ, PKCε, PKCη, PAK4, PLK1, ROCK2, IKKβ): excellent selective inhibitory effect on the PIM-1 kinase; also recorded: excellent selective inhibition ability against the PIM-1 kinase

— patent US20260216207A1, “7-CARBONYLSTAUROSPORINE DERIVATIVE, PREPARATION METHOD THEREFOR, AND USE THEREOF” (HANGZHOU KEXING BIOCHEM. CO., LTD., priority 2023, published 2026)
